Laboratory results: patent publication US9828357B2, “Cyclic compounds” (Takeda Pharmaceutical Company Limited, priority 2015, dated 2017)

Tested on: TLR4 signal
Test: Inhibitory effect on TNFα production from HMGB-1 stimulated human Kupffer cell
Format: cell-based
Settings: human primary Kupffer cells, HMGB-1 10 μg/mL, 24 hr
Protocol: TLR4 signal inhibitory activity in human Kupffer cell was evaluated as an inhibition rate of the test compound for TNFα produced by addition of HMGB-1 (SHINO-TEST), using human primary Kupffer cells (Cat# HUKCCS, Lot#HK8226) purchase from GIBCO. Cell suspension prepared in RPMI 1640-Gluta MAX™ medium supplemented with 10% inactivated bovine fetal serum was plated in 96-well I-type collagen-coated plate so as to contain 3.1×10^4 cells/100 μL/well. Then, the cells were cultured for 6 hr at 37° C. under 5% CO2/95% air to be adhered to the bottom of the plate. The non-adhered cells were rinsed off with PBS, and the test compound dissolved in DMSO was added to the adhered cells (final concentration: 1, 10, 100 nM), and the mixture was cultured for 1 hr. Then, HMGB-1 was added thereto (final concentration: 10 μg/mL), and the mixture was incubated for additional 24 hr. TNFα production amount contained in the culture supernatant was quantified by ELISA method (R&D systems). TNFα production inhibition rate (%) was calculated using the value under the HMGB-1-free condition as control of 100% inhibition and the value under the compound-free condition as control of 0% inhibition.

Structure (SMILES): CCOC(=O)C1=CC2(CC[C@H]1S(=O)(=O)[C@H]1CCc3cccc(Cl)c31)O[C@H](CO)[C@@H](CO)O2 [Compound 6, Ethyl (2R,3R,8R)-8-(((1S)-7-chloro-2,3-dihydro-1H-inden-1-yl)sulfonyl)-2,3-bis(hydroxymethyl)-1,4-dioxaspiro[4.5]dec-6-ene-7-carboxylate]
- TNFα production inhibition rate (% inhibition) (compound concentration 1 nM): 45 % inhibition
- TNFα production inhibition rate (% inhibition) (compound concentration 10 nM): 82 % inhibition
- TNFα production inhibition rate (% inhibition) (compound concentration 100 nM): 85 % inhibition
